Source: patent US10745393B2, “Small molecular probes, processes and use thereof” (JAWAHARLAL NEHRU CENTRE FOR ADVANCED SCIENTIFIC RESEARCH, priority 2014, dated 2020)
Where two headings read alike, the source gives them in different places. Marks after values point to notes of the source that are not given here.

How the values were obtained:
[1] = tested on: (GC)10; assay: Fluorescence response / quantum yield of probes with dsDNA (GC)10; assay type: binding; details: for ΦF with (GC)10: Tris-HCl buffer (100 mM, pH 7.4); for fluorescence change in presence of (GC)10: probe 10 μM
[2] = tested on: (AT)20; assay: Fluorescence response / quantum yield of probes with dsDNA (AT)20; assay type: binding; details: for ΦF with (AT)20: Tris-HCl buffer (100 mM, pH 7.4)
[3] = Absorption, emission and quantum yield of probes in Tris-HCl buffer without DNA; assay type: physicochemical; details: for ΦF in Buffer: Tris-HCl buffer (100 mM, pH 7.4), absence of DNA; for emission (fluorescence) maxima / absorption maxima: Tris-HCl buffer, no DNA; for emission (fluorescence) maxima: very weak fluorescence; for absorption maxima: probe 10 μM
[4] = tested on: (D1)mix; assay: Fluorescence response / quantum yield of probes with dsDNA (D1)mix; assay type: binding; details: Tris-HCl buffer (100 mM, pH 7.4)
[5] = tested on: DNA; assay: Comparison of DNA dyes: sequence selectivity and fluorescence of free/DNA bound dye; assay type: binding
[6] = tested on: cells; details: Table 3, commercial dyes; cited from earlier work
[7] = tested on: cells; details: Table 3, commercial dyes; cited from earlier work; remark: listed apart in the source
[8] = tested on: DNA; details: cited from earlier work; for Fluorescence qauntum yield (ΦF) DNA bound dye: Table 3, superscript a, commercial dyes
[9] = tested on: HEK293 cells; assay: DNase I and RNase digestion studies; assay type: cell-based; details: 2 hours
Method: DNase I is known to degrade nuclear DNA while RNase degrades RNA in the cytoplasm by catalyzing phosphodiester bonds cleavage. HEK293 cells are fixed with chilled methanol for about 1 minute at room temperature and permeabilized with 0.1% Triton X-100 in PBS for about 2×5 minutes. After rinsing with PBS twice, for one set of experiments, cells are treated with probe TC (5 μM) for about 15 min at room temperature in three adjacent wells. A total of about 200 μL PBS (as control experiment), about 100 μg/mL DNase I (Sigma), or about 30 μg/ml DNase-Free RNase (GE) is added into the three adjacent wells and incubated at about 37° C. for about 2 hours. For another set of experiments, instead of treating with probe TC, cells are only treated with about 200 μL PBS (as control experiment), about 100 μg/ml DNase I (Sigma), or about 30 μg/mL DNase-Free RNase (GE) by adding into the three adjacent wells and incubating at about 37° C. for about 2 hours. […] After two more washes in PBS with 0.1% Triton X-100, the cover slips are washed in PBS, rinsed in ddH2O and briefly dipped in 100% ethanol. After a quick dry, cover slips are mounted with 70% glycerol. Images are captured using a Carl Zeiss Laser Scanning Microscope (LSM510 META) using an equal exposure time for control, DNase I, and RNase experiments. Experiments are done in duplicate.

[10] = tested on: (AT)10; assay: Absorption / fluorescence response of probes with dsDNA (AT)10; assay type: binding; details: for fluorescence enhancement in presence of (AT)10: probe 10 μM, DNA 0 to 12 μM
[11] = tested on: ssDNA oligonucleotides (dA10, dT10, dG10 and dC10); assay: Fluorescence emission in presence of ssDNA oligonucleotides; assay type: binding; details: probe 10 μM, Tris-HCl buffer
[12] = target: Aβ42 aggregates (Homo sapiens, UniProt P05067); assay: Absorption / fluorescence response with Aβ42 fibrillar aggregates; assay type: binding
[13] = Absorption, emission and quantum yield of probes without Aβ42 aggregates; assay type: physicochemical
[14] = tested on: Aβ plaques in CSF samples; assay: Detection of amyloid plaques in CSF samples by fluorescence; details: ThT 20 μM
Method: In the present experiment, Amyloid plaques in the CSF sample are detected as it is a hallmark of AD using ThT and QC. […] QC (10 μM) is used to detect Aβ plaques in the same set of CSF samples, which show the same trend as Thioflavin assay and stains CSF3, CSF5, CSF6 and CSF12 samples (FIG. 57 and table 6).

[15] = target: ThT/Aβ42 aggregate complex (Homo sapiens, UniProt P05067); assay: ThT displacement / FRET assay; assay type: binding; details: excess ThT 50 μM; TC 1 μM, Aβ42 50 μM
[16] = fluorescence studies with dsDNAs

Chain of Aβ42 aggregates (P05067 672-713 limits assumed): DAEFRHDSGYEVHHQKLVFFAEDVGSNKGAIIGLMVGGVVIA
Chain of ThT/Aβ42 aggregate complex (P05067 672-713 limits assumed, one chain of several): as the sequence (P05067 672-713 limits assumed) above

## CCN(CC)c1ccc2cc(/C=C/c3cc[n+](C)c4ccccc34)c(=O)oc2c1 [CL, coumarin lepidine]
[1]
  ΦF with (GC)10: 0.007
[2]
  ΦF with (AT)20: 0.102
[3]
  ΦF in Buffer: 0.003
  emission (fluorescence) maxima: 689 nm
  absorption maxima: 519 nm
[4]
  ΦF with (D1)mix: 0.052
[5]; [16]
  preferential binding affinity, AT-sites versus GC-sites: towards AT-sites than GC-sites

## N=C(N)c1ccc(-c2cc3ccc(C(=N)N)cc3[nH]2)cc1 [DAPI, 4′,6-Diamidino-2-phenylindole]
[6]
  Cell permeability: Semi-Permeable
[7]
  Toxicity: Non-toxic
[8]; Table 3, commercial dyes
  Fluorescence maxima DNA bound dye: 450 nm
  Fluorescence maxima free dye: 496 nm
  Selectivity: AT rich
[8]
  Fluorescence qauntum yield (ΦF) DNA bound dye: 0.42^a

## CC[n+]1c(-c2ccccc2)c2cc(N)ccc2c2ccc(N)cc21 [Ethidium bromide]
[6]
  Cell permeability: Impermeable
[7]
  Toxicity: Toxic

## CN1CCN(c2ccc3[nH]c(-c4ccc5[nH]c(-c6ccc(O)cc6)nc5c4)nc3c2)CC1 [Hoechst33258, Hoechst 33258]
[6]
  Cell permeability: Permeable
[9]; DNase I about 100 μg/mL
  fluorescence nuclear staining after DNase I digestion: almost completely diminished
[9]; RNase about 30 μg/mL
  fluorescence nuclear staining after RNase digestion: does not affect the fluorescence staining
[7]
  Toxicity: Non-Toxic
[8]
  Fluorescence maxima DNA bound dye: 490/450 nm
  Fluorescence maxima free dye: 490/450 nm

## CC[N+](C)(CC)CCC[n+]1c(-c2ccccc2)c2cc(N)ccc2c2ccc(N)cc21.[I-].[I-] [Propidium iodide]
[6]
  Cell permeability: Impermeable
[2]; dye 10 μM, Tris-HCl buffer
  comparative fluorescence response in presence of (AT)20: do not show appreciable fluorescence changes
[7]
  Toxicity: Toxic
[8]; Table 3, commercial dyes
  Fluorescence maxima DNA bound dye: 617 nm
  Fluorescence maxima free dye: 646 nm
[8]
  Fluorescence qauntum yield (ΦF) DNA bound dye: 0.13^a

## CCN(CC)c1ccc2cc(/C=C/c3sc4ccccc4[n+]3CC)c(=O)oc2c1 [TCE, (E)-3-(2-(N-ethyl-benzo[d]thiazol-2-yl)vinyl)-7-(diethylamino)-2H-chromen-2-one]
[1]
  fluorescence change in presence of (GC)10: no appreciable change
[10]
  fluorescence enhancement in presence of (AT)10: 5 fold
[11]
  emission behaviour in presence of ssDNA: do not show significant changes in the emission behaviour
[5]; [16]
  preferential binding affinity, AT-sites versus GC-sites: towards AT-sites than GC-sites

## C#CC[n+]1c(/C=C/c2cc3ccc(N(CC)CC)cc3oc2=O)sc2ccccc21 [TCP, (E)-3-(2-(N-(prop-2-ynyl)-benzo[d]thiazol-2-yl)vinyl)-7-(diethylamino)-2H-chromen-2-one]
[1]
  fluorescence change in presence of (GC)10: no change
[10]; fixed concentration of DNAs ((AT)10, (D1)mix, (D2)mix), FIG. 32
  probe concentration at which fluorescence saturates: about 5 μM
[10]
  fluorescence enhancement in presence of (AT)10: 6 fold
[11]
  emission behaviour in presence of ssDNA: do not show significant changes in the emission behaviour
[5]; [16]
  preferential binding affinity, AT-sites versus GC-sites: towards AT-sites than GC-sites

## C[n+]1c(/C=C/c2ccc3ccc4cccc5ccc2c3c45)sc2ccccc21 [TP, thiazole pyrene]
[1]
  ΦF with (GC)10: 0.005
[12]
  change in absorption and colour with Aβ42 aggregates: fails to exhibit any detectable change in absorption
  change in fluorescence in presence of Aβ42 aggregates: does not show any detectable change in the fluorescence behavior
[2]
  ΦF with (AT)20: 0.042
[13]
  emission maximum in absence of Aβ42 aggregates: 623 nm
[13]; pH 7.4
  absorption maximum in absence of Aβ42 aggregates: 460 nm
[3]
  ΦF in Buffer: 0.002
  emission (fluorescence) maxima: 623 nm
  absorption maxima: 460 nm
[4]
  ΦF with (D1)mix: 0.026
[5]
  preferential binding affinity, AT-sites versus GC-sites: towards AT-sites than GC-sites

## Cc1ccc2c(c1)sc(-c1ccc(N(C)C)cc1)[n+]2C.[Cl-] [ThT, Thioflavin T, reference compound]
[14]; sample CSF1
  Normalized fluorescence intensity (ThT): 14.35
[14]; sample CSF2
  Normalized fluorescence intensity (ThT): 5.60
[14]; sample CSF3
  Normalized fluorescence intensity (ThT): 18.25
[14]; sample CSF4
  Normalized fluorescence intensity (ThT): 7.45
[14]; sample CSF5
  Normalized fluorescence intensity (ThT): 40.65
[14]; sample CSF6
  Normalized fluorescence intensity (ThT): 24.40
[14]; sample CSF7
  Normalized fluorescence intensity (ThT): 5.75
[14]; sample CSF8
  Normalized fluorescence intensity (ThT): 8.40
[14]; sample CSF9
  Normalized fluorescence intensity (ThT): 7.50
[14]; sample CSF10
  Normalized fluorescence intensity (ThT): 3.26
[14]; sample CSF11
  Normalized fluorescence intensity (ThT): 8.35
[14]; sample CSF12
  Normalized fluorescence intensity (ThT): 37.50
[14]; sample CSF13
  Normalized fluorescence intensity (ThT): 4.20
[14]; sample CSF14
  Normalized fluorescence intensity (ThT): 4.52
[15]
  displacement of TC from its complex with Aβ42 aggregates by excess ThT: does not displace TC
